In ChEMBL document CHEMBL1121493, “Folate analogues altered in the C9-N10 bridge region. 16. Synthesis and antifolate activity of 11-thiohomoaminopterin” (J Med Chem, 1980):
≈ marks a conversion by molar mass, not a printed value.

Key:
[1] = biological target: Reduced folate carrier (Homo sapiens); test: Ability to compete with methotrexate transport in human HeLa cells was determined; conditions: read-out: I50
Dihydrofolate reductase [2] = biological target: Dihydrofolate reductase (Lactobacillus casei, UniProt P00381); test: Ability to inhibit Lactobacillus casei dihydrofolate reductase in vitro was determined
Lacticaseibacillus casei [3] = test: (§1) The compound was tested for inhibition of growth of Lactobacillus casei (ATCC 7469) at 0.1 ng/ml; format: functional
Enterococcus faecium [4] = test: The compound was tested for inhibition of growth of Streptococcus faecium (ATCC 8043) at 2.0 ng/ml; format: functional
Thymidylate synthase = biological target: T1, Thymidylate synthase (Lactobacillus casei, UniProt P00469); test: Ability to inhibit Lactobacillus casei thymidylate synthase in vitro was determined; design: species or system Lacticaseibacillus casei; conditions: read-out: I50
T1 sequence (P00469 whole entry): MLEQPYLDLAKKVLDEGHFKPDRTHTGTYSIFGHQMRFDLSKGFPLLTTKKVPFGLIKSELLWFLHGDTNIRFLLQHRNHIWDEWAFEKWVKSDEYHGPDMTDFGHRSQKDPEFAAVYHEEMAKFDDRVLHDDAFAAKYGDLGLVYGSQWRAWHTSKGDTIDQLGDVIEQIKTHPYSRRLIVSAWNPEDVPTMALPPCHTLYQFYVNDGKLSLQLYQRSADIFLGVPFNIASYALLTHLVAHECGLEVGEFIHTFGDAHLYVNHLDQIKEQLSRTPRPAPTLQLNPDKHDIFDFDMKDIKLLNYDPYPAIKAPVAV

[5] = biological target: Reduced folate carrier (Homo sapiens); test: Ability to compete with methotrexate transport in human HeLa cells was determined; conditions: read-out: I50; remark: listed apart in the source
Dihydrofolate reductase [6] = biological target: T2, Dihydrofolate reductase (Homo sapiens, UniProt P00374); test: Ability to inhibit human HeLa cell dihydrofolate reductase in vitro was determined
T2 sequence (P00374 whole entry): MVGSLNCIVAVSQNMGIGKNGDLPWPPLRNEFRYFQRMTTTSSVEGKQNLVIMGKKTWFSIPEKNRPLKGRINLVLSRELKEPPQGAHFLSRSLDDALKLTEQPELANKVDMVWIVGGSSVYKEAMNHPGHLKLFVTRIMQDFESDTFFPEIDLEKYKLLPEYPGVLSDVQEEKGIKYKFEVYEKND

Lacticaseibacillus casei [7] = test: as §1; format: functional, organism-based; conditions: read-out: I 50
Enterococcus faecium [8] = test: The compound was tested for inhibition of growth of Streptococcus faecium (ATCC 8043) at 0.1 ng/ml; format: functional, organism-based; conditions: read-out: I 50
Lacticaseibacillus casei [9] = test: The compound was tested for inhibition of growth of Lactobacillus casei at 0.1 ng/ml (ATCC 7469); format: functional, organism-based; conditions: read-out: I 50

Sequence of Dihydrofolate reductase (Lactobacillus casei, UniProt P00381) (P00381 whole entry): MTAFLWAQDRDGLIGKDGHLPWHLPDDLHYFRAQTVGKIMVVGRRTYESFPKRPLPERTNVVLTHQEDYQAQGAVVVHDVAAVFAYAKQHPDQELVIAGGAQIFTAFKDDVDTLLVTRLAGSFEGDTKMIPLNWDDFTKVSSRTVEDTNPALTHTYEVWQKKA

Compound `Nc1nc(N)c2nc(CSc3ccc(C(=O)NC(CCC(=O)O)C(=O)O)cc3)cnc2n1` (stereo unspecified) has an IC50 [1] of 2.7 µM.
With `Nc1nc(N)c2nc(CCSc3ccc(C(=O)NC(CCC(=O)O)C(=O)O)cc3)cnc2n1` (stereo unspecified) the IC50 (Dihydrofolate reductase [2]) was 0.4 µM, the inhibition at 0.0001 µg/mL (Lacticaseibacillus casei [3]) was 50% and the inhibition at 0.002 µg/mL (Enterococcus faecium [4]) was 50%. The IC50 (Thymidylate synthase) was 60 µM and the IC50 [5] was 25 µM.
In the case of `Nc1nc(N)c2nc(COc3ccc(C(=O)NC(CCC(=O)O)C(=O)O)cc3)cnc2n1` (stereo unspecified), the IC50 (Dihydrofolate reductase [6]) is reported as 0.74 µM.
With `Nc1nc(N)c2nc(CCSc3ccc(C(=O)O)cc3)cnc2n1` the IC50 (Lacticaseibacillus casei [7]) was 0.1 µg/mL (≈ 0.292 µM) and the IC50 (Enterococcus faecium [8]) was 0.1 µg/mL (≈ 0.292 µM).
`COC(=O)c1ccc(SCCc2cnc3nc(N)nc(N)c3n2)cc1` was tested, and the IC50 (Lacticaseibacillus casei [9]) was 0.4 µg/mL (≈ 1.12 µM) and the IC50 (Enterococcus faecium [8]) was 0.016 µg/mL (≈ 0.0449 µM).
